Like-named read-outs stand apart in the source and are kept apart here.
How the values were obtained:
[1] = system: scratching action induced by Compound 48/80; experiment: Anti-pruritic activity test by application (Compound 48/80 scratching); type: in vivo, mouse (Crj:CD-1 (ICR)); details: Mus musculus, topical, read-out: Itching inhibition ratio % (Concentration %)
Method: 1) Preparation of the compound and the reagent: The compound being tested was dissolved in acetone (SIGMA). Compound 48/80 (SIGMA) was dissolved in physiological saline (m by Otsuka Pharmaceutical Co., Ltd.) so as to be 60 μg/mL.
2) Animals: Female Crj: CD-1 (ICR) mice of 6 to 10 age in week (Japan Charles Liver) were used as laboratory animals. The animals were fed in the barrier breeding room where […] in room temperature, 30 to 70% in humidity, and the light and shade condition existed every 12 hours and feed (CE-2: Japan Crea) and the drinking water were freely taken. The hair of dorsa (from the cervical region of the back to the center of the back) of the animals were cut with a hair clipper two days or more before the anti-pruritic activity is evaluated, those with no wound, rubefaction, and thickening of the skin on the dehaired part were chosen and supplied to the experiment on the day of the evaluation. 3) Evaluation procedures: The acetone solution of the compound being tested was applied by 50 μL on the dehaired parts of the mice with a pipeter. On the mice of the control group, 50 μL of acetone was applied. The 15 minutes later, 50 μL (corresponding to 3 μg) of Compound 48/80 solution was injected intradermally in the compound applied parts with the use of a injector (Terumo Corporation), the mice were individually put in five observation cages made of acrylate resin at once, and the scratching action (action of scratching the injection part by the hind leg) frequency during 30 minutes was measured. The evaluation was carried out in one group of 5 to 7 mice. 4) Data processing: The experiment results were shown by the mean values. The test of the significant difference of the compound applying group to the control group was conducted with Welch's t-test, and p<0.05 was assumed to be significant.

[2] = target: T1, CB1 receptor (Homo sapiens, UniProt P21554); experiment: Human cannabinoid receptor bonding inhibition test ([3H]CP55940), CB1; type: binding; set-up: expressed in transfected cells; membrane fraction
T1 sequence (P21554 whole entry): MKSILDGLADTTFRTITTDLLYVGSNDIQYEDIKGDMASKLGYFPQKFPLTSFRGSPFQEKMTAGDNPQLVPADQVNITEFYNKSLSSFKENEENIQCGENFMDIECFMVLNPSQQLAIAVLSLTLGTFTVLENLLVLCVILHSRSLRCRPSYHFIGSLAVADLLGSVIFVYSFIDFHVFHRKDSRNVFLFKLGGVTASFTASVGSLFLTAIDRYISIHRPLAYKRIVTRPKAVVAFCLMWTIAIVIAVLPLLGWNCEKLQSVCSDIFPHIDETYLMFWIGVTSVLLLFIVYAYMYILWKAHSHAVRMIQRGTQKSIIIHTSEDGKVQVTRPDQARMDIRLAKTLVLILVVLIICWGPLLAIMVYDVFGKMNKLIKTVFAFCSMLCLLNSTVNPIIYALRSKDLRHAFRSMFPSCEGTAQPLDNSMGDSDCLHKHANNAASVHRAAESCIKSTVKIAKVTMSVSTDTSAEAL

[3] = target: T2, CB2 receptor (Homo sapiens, UniProt P34972); experiment: Human cannabinoid receptor bonding inhibition test ([3H]CP55940), CB2; type: binding; set-up: expressed in transfected cells; membrane fraction
T2 sequence (P34972 whole entry): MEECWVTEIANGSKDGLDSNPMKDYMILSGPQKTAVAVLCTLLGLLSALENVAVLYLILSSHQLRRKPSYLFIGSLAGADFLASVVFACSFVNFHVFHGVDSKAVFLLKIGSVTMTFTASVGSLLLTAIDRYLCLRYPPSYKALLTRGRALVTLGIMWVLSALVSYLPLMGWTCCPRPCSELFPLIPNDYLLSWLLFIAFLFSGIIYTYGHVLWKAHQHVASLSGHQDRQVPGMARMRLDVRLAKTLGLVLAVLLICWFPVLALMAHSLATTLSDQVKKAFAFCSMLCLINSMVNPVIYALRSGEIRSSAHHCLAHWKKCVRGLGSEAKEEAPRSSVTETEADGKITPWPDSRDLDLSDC

[4] = target: T2, CB2 receptor; experiment: cAMP formation inhibition experiment through a cannabinoid receptor (forskolin stimulation), CB2; type: cell-based; set-up: expressed in transfected cells; host or cells: CHO cells
[5] = target: T1, CB1 receptor; experiment: cAMP formation inhibition experiment through a cannabinoid receptor (forskolin stimulation), CB1; type: cell-based; set-up: expressed in transfected cells; host or cells: CHO cells
Method: A compound being tested was added in the CHO cell which had mad human CB1 or CB2 receptor reveal and incubated for 15 minutes, and then forskolin (the final concentration 4 μM, and manufactured by SIGMA Corp.) was added and the mixture was incubated for 20 minutes. After the reaction had been stopped by adding 1M hydrochloric acid, the amount of cAMP in the supernatant was measured with the use of Cyclic AMP kit (made by the CIS Diagnostic Corp.).

[6] = [3H]CP55940 0.5 nM, membrane preparation of CHO cells expressing CB1, Ki calculated from IC50, read-out: Binding activity (nM) CB1
[7] = read-out: Agonist activity (nM) CB1

| Compound | Ki [3] [nM] | Ki [2] [nM] | IC50 [4] [nM] | IC50 [5, 7] [nM] | inhibition in vivo at 0.5 % [1] [%] | also measured |
| --- | --- | --- | --- | --- | --- | --- |
| O=C(N[C@H](C(=O)O)c1ccccc1)c1cc2c(n(CC3CCCCC3)c1=O)CCCCCC2 [Compound I-402] | < 2 | – | – | – | – | inhibition in vivo at 3 % [1]: 59%; Ki [2, 6]: 34 nM; IC50 ([4]; inhibition of forskolin (4 μM)-stimulated cAMP formation, CHO cells expressing human CB2, read-out: Agonist activity (nM) CB2): 5.7 nM |
| O=C(O)CC1(NC(=O)c2cc3c(n(CC4CCCCC4)c2=O)CCCCCC3)CCCCC1 [II-073] | 6.2 | 88 | 0.2 | 11 | – | inhibition in vivo at 3 % [1]: 58% |
| CCc1c(C)cc(C(=O)N[C@H](C(=O)NC(CO)CO)C(C)(C)C)c(=O)n1CC1CCCCC1 [Compound I-038] | < 2 | 7.1 | < 2 | 34 | – | inhibition in vivo at 3 % [1]: 67% |
| O=C(O)COc1ccc(NC(=O)c2cc3c(n(CC4CCCCC4)c2=O)CCCCCC3)cc1 [Compound X-220] | 18 | – | – | – | 97 | Ki ([2]; read-out: Binding activity (nM) CB1): 555 nM; IC50 ([4]; read-out: Agonist activity (nM) CB2): 231 nM; IC50 [5]: 1550 nM |
| CC(C)(NC(=O)c1cc2c(n(CC3CCCCC3)c1=O)CCCCCC2)C(=O)N1CCC(C(=O)N2CCCCC2)CC1 [Compound I-601] | 3.9 | 47 | 6.3 | 186 | – | inhibition in vivo at 1 % [1]: 67% |
| CC(=O)N1CCN(C(=O)C(C)(C)NC(=O)c2cc3c(n(CC4CCCCC4)c2=O)CCCCCC3)CC1 [Compound I-579] | 7.3 | – | 27 | – | – | inhibition in vivo at 3 % [1]: 99%; Ki [2, 6]: 158 nM; IC50 [5]: 431 nM |
| CC(C)NC(=O)NC1CCN(C(=O)C(C)(C)NC(=O)c2cc3c(n(CC4CCCCC4)c2=O)CCCCCC3)CC1 [Compound I-599] | 4 | 37 | 13 | 37 | 67 | – |
| CC(C)NC(=O)N1CCN(C(=O)C(C)(C)NC(=O)c2cc3c(n(CC4CCCCC4)c2=O)CCCCCC3)CC1 [Compound I-604] | 2.5 | 16 | 4.8 | 55 | – | inhibition in vivo at 3 % [1]: 95% |
| CC(C)(NC(=O)c1cc2c(n(CC3CCCCC3)c1=O)CCCCCC2)C(=O)NNC(=O)c1cccnc1 [Compound I-556] | < 2 | 8.1 | 3.5 | 357 | – | inhibition in vivo at 3 % [1]: 76% |
| O=C(O)CC(NC(=O)c1cc2c(n(Cc3ccc(F)cc3)c1=O)CCCCCC2)C(F)(F)F (centres unmarked) [II-067] | 13 | – | 4.9 | – | – | inhibition in vivo at 3 % [1]: 68%; Ki [2, 6]: > 2000 nM; IC50 [5]: 685 nM |
| CC(C)(NC(=O)c1cc2c(n(CC3CCCCC3)c1=O)CCCCCC2)C(=O)N1CCC(C(=O)NNS(C)(=O)=O)CC1 [Compound I-606] | 4.4 | 60 | 8.7 | 118 | – | inhibition in vivo at 1 % [1]: 86% |
| CC(C)CCn1c2c(cc(C(=O)NC(C(=O)O)c3cccs3)c1=O)CCCCCC2 (centres unmarked) [Compound I-551] | 2.2 | 50 | < 2 | 135 | – | inhibition in vivo at 2 % [1]: 51% |
| CCOC(=O)C1CCCCC1NC(=O)c1cc2c(n(CCCNC(C)=O)c1=O)CCCCCC2 (centres unmarked) [II-031] | 2.5 | > 2000 | 9.9 | – | – | inhibition in vivo at 2 % [1]: 55% |
| CC(C)(NC(=O)c1cc2c(n(CC3CCCCC3)c1=O)CCCCCC2)C(=O)OCC(O)CO (centres unmarked) [Compound I-305] | < 2 | < 2 | – | < 2 | 61 | – |
| CCOC(=O)C(C)(C)NC(=O)c1cc2c(n(CC3CCCCC3)c1=O)CCCCCC2 [Compound I-300] | < 2 | < 2 | – | < 2 | 41 | – |
| CCCCn1c(CCC)c(CC)cc(C(=O)N[C@H](C(=O)OC)C(C)(C)C)c1=O [Compound I-211] | < 2 | 2.4 | – | < 2 | – | inhibition in vivo at 1.5 % [1]: 70% |
| CCc1c(C)cc(C(=O)N[C@H](C(=O)OC)C(C)C)c(=O)n1CC1CCCCC1 [Compound I-134] | < 2 | < 2 | – | < 2 | 91 | – |
| CCc1c(C)cc(C(=O)N[C@H](C(=O)OC)C(C)C)c(=O)n1Cc1ccc(F)cc1 [Compound I-196] | < 2 | < 2 | – | < 2 | 47 | – |
| COCOC(=O)C(C)(C)NC(=O)c1cc2c(n(CC3CCCCC3)c1=O)CCCCCC2 [Compound I-306] | < 2 | < 2 | – | < 2 | 83 | – |
| COC(=O)[C@@H](NC(=O)c1cc2c(n(CCCC#N)c1=O)CCCCCC2)C(C)C [Compound I-266] | < 2 | 12 | – | 12 | – | inhibition in vivo at 2 % [1]: 64% |
| CSC(=O)C(C)(C)NC(=O)c1cc2c(n(CC3CCCCC3)c1=O)CCCCCC2 [Compound I-001, 2-[(1-cyclohexylmethyl-2-oxo-1,2,5,6,7,8,9,10-octahydro-cycloocta[b]pyridine-3-carbonyl)-amino]-2-methyl-thiopropionic acid S-methyl ester] | < 2 | < 2 | – | < 2 | 53 | – |
| COC(=O)[C@@H](NC(=O)c1cc2c(n(Cc3ccc(F)cc3)c1=O)CCCCCC2)C(C)(C)C [Compound I-263] | < 2 | < 2 | – | < 2 | – | inhibition in vivo at 1.5 % [1]: 57% |
| CCCCn1c2c(cc(C(=O)N[C@H](C(=O)OC)C(C)(C)C)c1=O)CCCCCC2 [Compound I-203] | < 2 | < 2 | – | < 2 | 86 | – |
| CCCCn1c2c(cc(C(=O)NC3(C(=O)OC)CCCCC3)c1=O)CCCCCC2 [Compound I-124] | < 2 | 3.6 | – | < 2 | 49 | – |
| COC(=O)C(C)(C)NC(=O)c1cc2c(n(Cc3ccc(F)cc3)c1=O)CCCCCC2 [Compound I-255] | < 2 | 2.1 | – | < 2 | – | inhibition in vivo at 1.5 % [1]: 93% |
| CCCCn1c2c(cc(C(=O)N[C@H](C(=O)OC)C(C)C)c1=O)CCCCCC2 [Compound I-111] | < 2 | 3.5 | – | < 2 | – | inhibition in vivo at 0.1 % [1]: 55% |
| CCc1c(C)cc(C(=O)N[C@H](C(=O)OC)C(C)(C)C)c(=O)n1CC1CCCCC1 [Compound I-252] | < 2 | < 2 | – | < 2 | – | inhibition in vivo at 1.5 % [1]: 96% |
